Data on one substance can be found in patent publication US20260166084A1, “NOVEL DRUG-INDUCIBLE DEGRADATION TAGS” (THE INSTITUTE OF CANCER RESEARCH: ROYAL CANCER HOSPITAL, priority 2022, published 2026).

“Also recorded” adds a separate entry of the source.

The test system of one data set is HMEC cells. The data set can be described thus: Nuclear localisation by immunofluorescence in HMEC. The following applies: fluorescence microscopy, FIG. 3b and 13. Type of data set: cell-based, human. The procedure: To determine localisation of “superdegron” which has a degree of homology with iTAG1, the inventors cloned superdegron into the expression vector to replace iTAG1 as the degron fused with GFP.
HMEC cells were seeded in glass bottom 96-well plates (Perkin Elmer) at a 1000 cells/well and treated with 1 μg/ml DOX for 24 h to induce construct. Cells were fixed using 4% paraformaldehyde in PBS solution for 15 min at 37° C. and permeabilised with 0.05% Titon-X-100 detergent for 10 min at room temperature. Prior to proceeding to cell imaging, the cells were incubated for a min with 1 μg/ml DAPI (ThermoFisher Scientific) to stain the cell nuclei. Cells were visualised on the Zeiss Axio Vert.A1 FL-LED inverted epifluorescence microscope (Zeiss) and images were captured using the ZEN Blue software (Zeiss).

Data set [1] deals with anti-B7H3 chimeric antigen receptor (TE9). In words: Cell surface expression of tagged CAR in transduced Jurkat and 293T cells by flow cytometry. Type of data set: cell-based, human. The procedure: Initial experiments evaluated expression and degradation in human Jurat T cell leukaemia cells or human 293T cells, which were stably transduced with untagged, iTAG1(DCD23)-tagged, and iTAG2-tagged anti-B7H3 CAR-T cells. Here the relative expression of the CAR and the CD34 marker gene are determined by direct staining and evaluation by flow cytometry.
Jurkat and 293T cell lines were grown in DMEM with 10% fetal calf serum and transduced with constructs containing CAR+/−degrader tag. Transduction efficiency was analysed 72 hours post transduction by flow cytometry, staining for the CD34 epitope encoded by the RQR8 gene.
(§1) CAR surface expression for transduction efficiency and degradation experiments in primary cells and cell lines was quantified using his-tagged B7H3 protein in combination with anti his-tagged fluorescent antibody (J095G45, BioLegend), and directly fluorescently labelled anti CD34 antibody (QBEnd10, R&D), using LSR2 cytometer. Analysis used Flo-Jo software.

Data set [2] deals with iTAG2 and DCD23-tagged chimeric antigen receptor (TE9-28-Z). In words: IMiD induced degradation of tagged CAR in transduced Jurkat cells. Type of data set: cell-based, human. The following applies: lenalidomide, pomalidomide, iberdomide. The procedure: (§2) CAR expression in PBMC-derived T cells following degradation with 10, 1, 0.1, 0.01, 0.001 or 0 uM iberdomide after 24 hours, was assessed by flow cytometry. To assess CAR functionality+/−degrader tag, transduced T cells were cultured 24 hours with SUPT1+/−B7H3 at a 1:1 ratio. Supernatant was harvested, and IL-2 and IFNγ levels determined by ELISA.
as §1

Another data set concerns TE9-28-Z CAR. The data set can be described thus: IMiD induced degradation and re-expression of tagged CAR in primary human T cells. The class given is cell-based. The following applies: washed in PBS, rested 24 h in RPMI1640, FIG. 15. An excerpt:
The re-expression of degraded chimeric antigen receptors following removal of the degrader drug is important for the CAR-T cell to be able to toggle between active and resting states, thereby allowing additional therapeutic manipulation and fine-tuning.
To evaluate the general functionality of the TE9-28Z-iTAG2 anti-B7H3 CAR-T construct when expressed from a different viral vector, driven by alternate promoter, the construct was cloned into third generation lentivector pCLL2 backbone and viral supernatant was generated by transient transfection of 293T cells, with virus pseudotyped with VSV-G. Two versions of the TE9-28Z-iTAG2 sequence were evaluated in this format, which were with and without codon optimisation and removal of cloning scars. There are no differences in amino acid sequence of iTAG2 between original (construct 3) and codon optimised (construct 4) versions (FIG. 16 a and b). […] The log reduction in CAR expression as expressed as geometric median fluorescence intensity (gMFI) was highly consistent. […]
PBMC-derived T cells from 2 healthy donor blood cones were cultured following CD56 depletion (day0) which was performed using Miltenyi CD56 depletion beads and magnetic negative selection using LD columns according to manufacturer's instructions. […] Transduction efficiency was assessed 4 days post transduction by flow cytometry staining for RQR8 and CAR expression.
CAR expression in PBMC-derived T cells following degradation with 10, 1, 0.1, 0.01, 0.001 or 0 uM iberdomide after 24 hours, was assessed by flow cytometry. […] Supernatant was harvested, and IL-2 and IFNγ levels determined by ELISA.
CAR surface expression for transduction efficiency and degradation experiments in primary cells and cell lines was quantified using his-tagged B7H3 protein in combination with anti his-tagged fluorescent antibody (J095G45, BioLegend), and directly fluorescently labelled anti CD34 antibody (QBEnd10, R&D), using LSR2 cytometer. […]

The subject of data set [3] is SupT1 cells transduced to express human B7H3. The data set can be described thus: CAR functionality: cytokine ELISA after co-culture with SupT1-B7H3 targets. Type of data set: cell-based. The following applies: primary human T cells.
Excerpt: To evaluate whether the brighter CAR expression of iTAG2 tagged CAR compared with DCD23-tagged CAR translated into greater effector function, the respective CAR-T populations from the two independent donors were co-cultured overnight with human SupT1 leukaemia target cells isogenic for the target antigen B7H3. Wild type SupT1 have no detectable B7H3 expression. Following overnight culture of T cells with the targets, culture supernatant was harvested and evaluated for inflammatory cytokines interferon gamma and Interleukin-2 by ELISA (FIG. 9).
as §2
(In an ELISA, binding on a coated surface is turned into a signal by an enzyme label.)

Another data set concerns the target T1, CRBN/DDB1 complex (Homo sapiens, UniProt Q96SW2).
T1 construct: made in house
In words: Size exclusion chromatography of CRBN/DDB1 and iTAG2 with or without iberdomide. Type of data set: binding. The conditions noted are these: 15 μM CRBN/DDB1, 50 μM iTAG2, 100 μM iberdomide, FIG. 14. An excerpt:
Biochemical evidence for IMiD-dependent formation of a direct interaction between iTAG2 and the CRBN/DDB1 complex was generated using size exclusion chromatography (SEC). Purified CRBN/DDB1 protein complex and iTAG2 protein were mixed together and subjected to SEC in the presence or absence of iberdomide, shown in FIG. 14. The SEC peak 1 corresponding to the higher molecular weight species was shifted towards a lower elution time in the presence of iberdomide, with a slight increase in the optical density at 280 nm, which is consistent with the formation of a larger complex in the presence of iberdomide (FIG. 14A). SDS-PAGE analysis of representative fractions of the SEC analysis in the absence of iberdomide confirmed that the SEC peak 1 contains only DDB1 and CRBN proteins, with iTAG2 only present in the SEC peak 2 (FIG. 14B).
SEC was performed using a Superose 6 5/150 GL column (Cytiva Life Sciences) mounted on an Agilent 1260 Infinity II LC System HPLC system. […] 100 μL fractions were collected and samples spanning the elution peaks were analysed by SDS-PAGE on precast NuPAGE 4-12% Bis-Tris gels (Invitrogen) using standard protocols, with SeeBlue Plus2 pre-stained protein standards (Invitrogen) loaded on the first lane of each gel.
Background: SEC sorts molecules by how far they enter the pores of the column.

TE9-28-Z CAR, sequence (Q96SW2 whole entry, one chain of several): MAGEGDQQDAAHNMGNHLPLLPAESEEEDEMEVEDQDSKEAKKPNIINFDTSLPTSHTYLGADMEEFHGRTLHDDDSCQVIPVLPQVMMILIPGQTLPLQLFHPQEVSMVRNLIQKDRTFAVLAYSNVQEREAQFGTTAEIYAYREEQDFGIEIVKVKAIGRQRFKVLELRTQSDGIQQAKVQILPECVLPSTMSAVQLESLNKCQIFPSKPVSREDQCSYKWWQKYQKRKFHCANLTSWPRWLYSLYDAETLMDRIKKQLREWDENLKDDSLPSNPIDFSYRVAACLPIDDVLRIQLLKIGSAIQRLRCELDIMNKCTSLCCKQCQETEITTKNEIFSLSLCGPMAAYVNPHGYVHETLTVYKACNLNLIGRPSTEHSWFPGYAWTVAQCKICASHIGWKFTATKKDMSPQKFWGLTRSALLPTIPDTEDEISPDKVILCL
T1 sequence (Q96SW2 whole entry, one chain of several): as above
T1 sequence (Q16531 2-1140 partner, one chain of several): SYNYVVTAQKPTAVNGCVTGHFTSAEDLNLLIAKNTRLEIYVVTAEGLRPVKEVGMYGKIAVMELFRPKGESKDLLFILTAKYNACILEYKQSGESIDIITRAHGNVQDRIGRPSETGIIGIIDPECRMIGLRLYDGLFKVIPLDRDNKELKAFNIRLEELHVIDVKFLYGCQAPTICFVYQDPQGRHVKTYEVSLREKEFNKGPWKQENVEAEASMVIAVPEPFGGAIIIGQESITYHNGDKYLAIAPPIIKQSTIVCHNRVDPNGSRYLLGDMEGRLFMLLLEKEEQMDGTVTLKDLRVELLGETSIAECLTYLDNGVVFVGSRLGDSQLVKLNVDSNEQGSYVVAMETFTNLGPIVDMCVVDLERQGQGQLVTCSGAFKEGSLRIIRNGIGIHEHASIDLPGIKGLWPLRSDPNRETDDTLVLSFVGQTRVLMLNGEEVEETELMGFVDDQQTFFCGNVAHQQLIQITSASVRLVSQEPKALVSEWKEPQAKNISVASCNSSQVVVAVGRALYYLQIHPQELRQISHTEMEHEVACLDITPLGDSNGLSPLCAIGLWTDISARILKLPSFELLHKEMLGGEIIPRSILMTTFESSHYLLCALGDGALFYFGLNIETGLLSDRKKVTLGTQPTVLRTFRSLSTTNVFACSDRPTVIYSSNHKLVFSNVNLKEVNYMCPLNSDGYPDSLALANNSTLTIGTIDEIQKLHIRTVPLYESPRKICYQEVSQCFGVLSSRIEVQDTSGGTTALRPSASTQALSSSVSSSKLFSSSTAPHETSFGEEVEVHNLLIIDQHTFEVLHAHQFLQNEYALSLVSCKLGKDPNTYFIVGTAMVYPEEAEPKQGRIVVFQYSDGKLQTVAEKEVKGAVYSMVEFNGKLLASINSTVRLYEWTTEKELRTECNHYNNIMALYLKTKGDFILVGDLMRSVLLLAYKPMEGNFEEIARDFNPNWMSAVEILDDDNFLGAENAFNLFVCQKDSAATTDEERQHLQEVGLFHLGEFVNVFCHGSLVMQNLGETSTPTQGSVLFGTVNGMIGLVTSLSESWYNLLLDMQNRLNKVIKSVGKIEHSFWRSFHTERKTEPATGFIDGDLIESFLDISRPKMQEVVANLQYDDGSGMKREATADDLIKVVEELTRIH

“iTAG2: mutated iTAG1 degron tag, SEQ ID NO: 43, PNVLMVHNESHTGEIPLQCEICGFTCEQAGNLLNHIELHSGEIPFKCHLCNYACRRRDAL (iTAG2)”: the “nuclear accumulation / localisation of tagged EGFP/GFP” value with HMEC cells was “abolished nuclear accumulation; also recorded: cytoplasmic localisation”. In addition, in data set [1] (transduced 293T and Jurkat cells, FIG. 6), the “cell surface expression of tagged CAR relative to CD34 marker” value is given as “superior cell surface expression”. Further, the “surface expression of tagged CARs” value in data set [1] (transduced Jurkat cells, 41BB and CD28 versions of TE9 CAR, FIG. 10) was “same expression as wild type”. In data set [2], the “time of drug treatment at which maximal reduction of surface expression is detectable” value turned out to be 4 h. Further, the “CAR re-expression after drug washout” value in the data set on TE9-28-Z CAR was “re-upregulated after IMiD washout”. In addition, the “antigen-dependent reactivity, superiority over DCD23-tagged CAR-T” value in data set [3] is given as “approximately 10 fold”. The “effector function compared with untagged CAR” value in data set [3] (SupT1-B7H3, FIG. 9) is on record as “not significantly different to untagged CAR”. In the data set with CRBN/DDB1 complex, the “complex formation by SEC and SDS-PAGE” value is “formation of a complex between DDB1, CRBN and iTAG2 in the presence of iberdomide”.
